Test results as given in paper PMC11375810, “Novel Diacyl-hydrazide Compounds as Potential Therapeutics for Visceral Leishmaniasis” (ACS Omega, 2024).
Read-outs that look alike come from different tables or passages of the source.

Key:
[1] = test system: intracellular L. donovani in THP-1 macrophage host cells; assay: THP-1 macrophage infection assay: anti L. donovani activity; conditions: for SI (CC50/IC50): THP-1 CC50 / L. donovani IC50; for L. donovani growth inhibitory activity (in words): L. donovani in THP-1 macrophages
[2] = THP-1 macrophage infection assay: cytotoxicity to host cells; conditions: human
[3] = test system: intracellular L. donovani in THP-1 macrophage host cells
[4] = test system: THP-1 macrophages
[5] = Metabolic stability of compound 1; assay type: in vitro ADME
Excerpt: We first analyzed compound 1 for physicochemical parameters such as the molecular weight, cLogP, polar surface area, freely rotatable bonds, hydrogen bond donors and acceptors and solubility at pH 2 and 6.5, as well as metabolic stability to evaluate its drug-likeness (Table 1). […] These “drug-like” physicochemical properties and the good synthetic accessibility of the scaffold further supported exploring the compound’s SAR to reveal valuable insights and guidance for drug developers.

[6] = test system: L. donovani in infected macrophages; design: method as in PMID 25740547; conditions: cited from earlier work
[7] = test system: L. donovani amastigote/macrophages; design: method as in PMID 25740547; conditions: GSK kinetoplastid high-throughput screen; cited from earlier work
[8] = test system: HepG2; design: method as in PMID 25740547; conditions: GSK screen; read-out: CC50 against HepG2 cells; cited from earlier work
[9] = Leishmania donovani, THP-1, read-out: IC50 (reduction of total number of parasites by 50%)

Which IC50 [1, 9] does the source give for `Cc1ccccc1-c1ccc(C(=O)NNC(=O)Cc2nc3ccccc3n2C)nc1` [Compound 17i, N′-(2-(1-Methyl-1H-benzo[d]imidazole-2-yl)acetyl)-5-(o-tolyl)picolinohydrazide] here?
Its IC50 is 0.4 µM.

And the “SI (CC50/IC50)” value [1]?
Its value is 168.

What about the CC50 at 72 h [2] of the same compound?
The CC50 at 72 h was 67 µM.

What does the source list for `Cn1c(CC(=O)NNC(=O)c2ccccc2)nc2ccccc21` [Compound 13c, N′-(2-(1-Methyl-1H-benzo[d]imidazole-2-yl)acetyl)benzohydrazide]?
L. donovani growth inhibitory activity (in words) [1]: completely lost their L. donovani growth inhibitory activity; IC50 [1, 9]: > 100 µM; CC50 at 72 h [2]: > 100 µM

For “N′-(2-(Imidazole-2-yl)acetyl)quinoline-2-carbohydrazide [Compound 12]”, which “SI (CC50/IC50)” value [3] is on record?
The value was 0.7.

And the CC50 [4]?
The CC50 was 33 µM.

And the Complete parasite clearance ([1]; L. donovani in THP-1 macrophage host cells, 10-point curve, top 100 μM, duplicates, n = 1)?
Its Complete parasite clearance is >100 µM.

And the IC50 ([1]; read-out: IC50 (reduction of total number of parasites by 50%), L. donovani in THP-1 macrophage host cells, 10-point curve, 2× serial dilution, top 100 μM, duplicates, n = 1)?
The IC50 was 45 µM.

With `Cn1c(CC(=O)NNC(=O)c2ccc(-c3ccc(C#N)cc3)cn2)nc2ccccc21` [Compound 17e, 5-(4-Cyanophenyl)-N′-(2-(1-methyl-1H-benzo[d]imidazole-2-yl)acetyl)picolinohydrazide] as the compound, how does the IC50 [1, 9] read?
The IC50 was 0.8 µM.

And the “SI (CC50/IC50)” value [1]?
Its value is 120.

And the CC50 at 72 h [2]?
The CC50 at 72 h was 96 µM.

For `COc1ccc(-c2ccc(C(=O)NNC(=O)Cc3nc4ccccc4n3C)nc2)cc1` [Compound 17h, 5-(4-Methoxyphenyl)-N′-(2-(1-methyl-1H-benzo[d]imidazole-2-yl)acetyl)picolinohydrazide], which IC50 [1, 9] is on record?
Its IC50 is 0.7 µM.

What about the “SI (CC50/IC50)” value [1] of the same compound?
The value was >145.

And the CC50 at 72 h [2]?
The CC50 at 72 h was > 100 µM.

With `Cn1c(CC(=O)NNC(=O)c2ccc(-c3ccc(Cl)cc3)cn2)nc2ccccc21` [Compound 17c, 5-(4-Chlorophenyl)-N′-(2-(1-methyl-1H-benzo[d]imidazole-2-yl)acetyl)picolinohydrazide] as the compound, how does the IC50 [1, 9] read?
Its IC50 is 1 µM.

What about the “SI (CC50/IC50)” value [1] of the same compound?
Its value is 74.

What about the CC50 at 72 h [2] of the same compound?
Its CC50 at 72 h is 73 µM.

What does the source list for `Cn1c(CC(=O)NNC(=O)c2ccc3ccccc3n2)nc2ccccc21` [Compound 1, N′-(2-(1-Methyl-1H-benzo[d]imidazole-2-yl)acetyl)quinoline-2-carbohydrazide]?
microsomal CLint ([5]; intrinsic clearance, read-out: metabolic stability Clint,in vitro): 22 µL/min/mg; half-life ([5]; read-out: metabolic stability half-life t1/2): 1.33 h; pIC50 L. donovani in infected macrophages ([6]; GSK kinetoplastid high-throughput screen): ~5.9; IC50 ([6]; GSK screen, read-out: IC50 against L. donovani in infected macrophages): ~1.3 µM; therapeutic window CC50/IC50 (selectivity for the parasite) ([6]; HepG2 CC50 / L. donovani IC50, GSK screen): ~79; pIC50 L. donovani imaging: amastigote/macrophages [7]: 6.1; CC50 [8]: ~100 µM; IC50 [1, 9]: 1.9 µM; SI (CC50/IC50) [1]: >54; CC50 at 72 h [2]: > 100 µM

Which results are given for `COc1ccccc1-c1ccc(C(=O)NNC(=O)Cc2nc3ccccc3n2C)nc1` [Compound 17f, 5-(2-Methoxyphenyl)-N′-(2-(1-methyl-1H-benzo[d]imidazole-2-yl)acetyl)picolinohydrazide]?
IC50 [1, 9]: 0.6 µM; SI (CC50/IC50) [1]: 32; CC50 at 72 h [2]: 19 µM

Which IC50 [1, 9] does the source give for `Cc1ccc(-c2ccc(C(=O)NNC(=O)Cc3nc4ccccc4n3C)nc2)cc1` [Compound 17k, N′-(2-(1-Methyl-1H-benzo[d]imidazole-2-yl)acetyl)-5-(p-tolyl)picolinohydrazide] here?
Its IC50 is 0.2 µM.

What about the “SI (CC50/IC50)” value [1] of the same compound?
Its value is >500.

And the CC50 at 72 h [2]?
The CC50 at 72 h was > 100 µM.

For `O=C(Cc1nc2ccccc2[nH]1)NNC(=O)c1ccc2ccccc2n1` [Compound 5a, N′-(2-(1H-Benzo[d]imidazole-2-yl)acetyl)quinoline-2-carbohydrazide], which IC50 [1, 9] is on record?
Its IC50 is 5.9 µM.

What about the “SI (CC50/IC50)” value [1] of the same compound?
Its value is >17.

And the CC50 at 72 h [2]?
The CC50 at 72 h was > 100 µM.

For `Cn1c(CC(=O)NNC(=O)c2ccc(-c3cccc(Cl)c3)cn2)nc2ccccc21` [Compound 17b, 5-(3-Chlorophenyl)-N′-(2-(1-methyl-1H-benzo[d]imidazole-2-yl)acetyl)picolinohydrazide], which IC50 [1, 9] is on record?
The IC50 was 1 µM.

What about the “SI (CC50/IC50)” value [1] of the same compound?
Its value is 94.

What about the CC50 at 72 h [2] of the same compound?
The CC50 at 72 h was 94 µM.

For `Cn1c(CC(=O)NNC(=O)c2cccc(-c3ccccc3)n2)nc2ccccc21` [Compound 13d, N′-(2-(1-Methyl-1H-benzo[d]imidazole-2-yl)acetyl)-6-phenylpicolinohydrazide], which IC50 [1, 9] is on record?
Its IC50 is 20 µM.

And the CC50 at 72 h [2]?
Its CC50 at 72 h is > 100 µM.

What does the source list for `O=C(Cc1nc2ccccc2o1)NNC(=O)c1ccc2ccccc2n1` [Compound 5c, N′-(2-(Benzo[d]oxazol-2-yl)acetyl)quinoline-2-carbohydrazide]?
IC50 [1, 9]: 49 µM; SI (CC50/IC50) [1]: 1.1; CC50 at 72 h [2]: 54 µM

Which IC50 [1, 9] does the source give for `Cn1c(CC(=O)NNC(=O)c2ccccn2)nc2ccccc21` [Compound 13b, N′-(2-(1-Methyl-1H-benzo[d]imidazole-2-yl)acetyl)picolinohydrazide] here?
The IC50 was 44 µM.

What about the “SI (CC50/IC50)” value [1] of the same compound?
The value was 1.4.

What about the CC50 at 72 h [2] of the same compound?
Its CC50 at 72 h is 62 µM.

What does the source list for `COc1cccc(-c2ccc(C(=O)NNC(=O)Cc3nc4ccccc4n3C)nc2)c1` [Compound 17g, 5-(3-Methoxyphenyl)-N′-(2-(1-methyl-1H-benzo[d]imidazole-2-yl)acetyl)picolinohydrazide]?
IC50 [1, 9]: 0.6 µM; SI (CC50/IC50) [1]: >172; CC50 at 72 h [2]: > 100 µM

For `Cn1c(CC(=O)NNC(=O)c2ccc(-c3cccc(C#N)c3)cn2)nc2ccccc21` [Compound 17d, 5-(3-Cyanophenyl)-N′-(2-(1-methyl-1H-benzo[d]imidazole-2-yl)acetyl)picolinohydrazide], which IC50 [1, 9] is on record?
The IC50 was 1.4 µM.

What about the “SI (CC50/IC50)” value [1] of the same compound?
The value was >74.

And the CC50 at 72 h [2]?
Its CC50 at 72 h is > 100 µM.

For `Cn1c(CC(=O)NNC(=O)c2ccc(-c3ccccc3Cl)cn2)nc2ccccc21` [Compound 17a, 5-(2-Chlorophenyl)-N′-(2-(1-methyl-1H-benzo[d]imidazole-2-yl)acetyl)picolinohydrazide], which IC50 [1, 9] is on record?
Its IC50 is 1 µM.

What about the “SI (CC50/IC50)” value [1] of the same compound?
Its value is >103.

And the CC50 at 72 h [2]?
Its CC50 at 72 h is > 100 µM.

Which “L. donovani growth inhibitory activity (in words)” value [1] does the source give for `Cn1c(CC(=O)NNC(=O)c2ccc3ccccc3c2)nc2ccccc21` [Compound 13a, N′-(2-(1-Methyl-1H-benzo[d]imidazole-2-yl)acetyl)-2-naphthohydrazide] here?
Its value is “completely lost their L. donovani growth inhibitory activity”.

What about the IC50 [1, 9] of the same compound?
The IC50 was > 100 µM.

What about the CC50 at 72 h [2] of the same compound?
Its CC50 at 72 h is > 100 µM.

What does the source list for `Cn1c(CC(=O)NNC(=O)c2ccc(-c3ccccc3)cn2)nc2ccccc21` [Compound 13e, N′-(2-(1-Methyl-1H-benzo[d]imidazole-2-yl)acetyl)-5-phenylpicolinohydrazide]?
IC50 [1, 9]: 1.7 µM; SI (CC50/IC50) [1]: 29; CC50 at 72 h [2]: 49 µM

With `Cc1cccc(-c2ccc(C(=O)NNC(=O)Cc3nc4ccccc4n3C)nc2)c1` [Compound 17j, N′-(2-(1-Methyl-1H-benzo[d]imidazole-2-yl)acetyl)-5-(m-tolyl)picolinohydrazide] as the compound, how does the IC50 [1, 9] read?
The IC50 was 0.3 µM.

And the “SI (CC50/IC50)” value [1]?
Its value is 173.

And the CC50 at 72 h [2]?
Its CC50 at 72 h is 52 µM.

Which IC50 [1, 9] does the source give for `O=C(Cc1nc2ccccc2s1)NNC(=O)c1ccc2ccccc2n1` [Compound 5b] here?
The IC50 was > 100 µM.

And the CC50 at 72 h [2]?
Its CC50 at 72 h is > 100 µM.
